# From ChEMBL document CHEMBL3045199, “Synthesis of some (E)-6-[2-(furan-2-yl)ethenyl]-1,2,4-triazin-5-ones and their biological evaluation as antitumor agents” (2013)
# Legend:
# Type in all cases: functional
# [1] = Cytotoxicity against Homo sapiens (human) prostate cancer cells after 48 hr by SRB assay; details: Cancer cell lines
# T47D = experiment: Cytotoxicity against Homo sapiens (human) T47D cells after 48 hr by SRB assay
# Hs-578T = experiment: Cytotoxicity against Homo sapiens (human) Hs 578T cells after 48 hr by SRB assay
# MDA-MB-231 = experiment: Cytotoxicity against Homo sapiens (human) MDA-MB-231 cells after 48 hr by SRB assay; details: MDA-MB-231, 48 h
# MCF7 = experiment: Cytotoxicity against Homo sapiens (human) MCF7 cells after 48 hr by SRB assay; details: MCF7, 48 h
# DU-145 = experiment: Cytotoxicity against Homo sapiens (human) DU145 cells after 48 hr by SRB assay; details: DU-145, 48 h
# TK-10 = experiment: Cytotoxicity against Homo sapiens (human) TK10 cells after 48 hr by SRB assay; details: TK-10, 48 h
# CAKI-1 [2] = experiment: Cytotoxicity against Homo sapiens (human) Caki1 cells after 48 hr by SRB assay; details: CAKI-1, 48 h
# A498 = experiment: Cytotoxicity against Homo sapiens (human) A498 cells after 48 hr by SRB assay; details: A498, 48 h
# SK-OV-3 = experiment: Cytotoxicity against Homo sapiens (human) SKOV3 cells after 48 hr by SRB assay; details: SK-OV-3, 48 h
# SF-295 = experiment: Cytotoxicity against Homo sapiens (human) SF295 cells assessed as growth inhibition at 10 uM after 24 hr; details: SF-295, 24 h, read-out: GI
# SW-620 = experiment: Cytotoxicity against Homo sapiens (human) SW620 cells assessed as growth inhibition at 10 uM after 24 hr; details: SW-620, 24 h, read-out: GI
# CCRF-CEM [3] = experiment: Cytotoxicity against Homo sapiens (human) CCRF-CEM cells assessed as growth inhibition at 10 uM after 24 hr; details: read-out: GI
# CAKI-1 [4] = experiment: Cytotoxicity against Homo sapiens (human) Caki1 cells assessed as growth inhibition at 10 uM after 24 hr; details: CAKI-1, 24 h, read-out: GI
# ACHN = experiment: Cytotoxicity against Homo sapiens (human) ACHN cells assessed as growth inhibition at 10 uM after 24 hr; details: read-out: GI
# [5] = Cytotoxicity against Homo sapiens (human) NCI-ADR-RES cells assessed as growth inhibition at 10 uM after 24 hr; details: read-out: GI
# IGROV-1 = experiment: Cytotoxicity against Homo sapiens (human) IGROV1 cells assessed as growth inhibition at 10 uM after 24 hr; details: IGROV-1, 24 h, read-out: GI
# SK-MEL-28 = experiment: Cytotoxicity against Homo sapiens (human) SK-MEL-28 cells assessed as growth inhibition at 10 uM after 24 hr; details: SK-MEL-28, 24 h, read-out: GI
# U-251 = experiment: Cytotoxicity against Homo sapiens (human) U251 cells assessed as growth inhibition at 10 uM after 24 hr; details: U-251, 24 h, read-out: GI
# SNB-75 = experiment: Cytotoxicity against Homo sapiens (human) SNB75 cells assessed as growth inhibition at 10 uM after 24 hr; details: SNB-75, 24 h, read-out: GI
# UO-31 = experiment: Cytotoxicity against Homo sapiens (human) UO31 cells assessed as growth inhibition at 10 uM after 24 hr; details: UO-31, 24 h, read-out: GI
# SN12C = experiment: Cytotoxicity against Homo sapiens (human) SN12C cells assessed as growth inhibition at 10 uM after 24 hr; details: read-out: GI
# NCI-H226 = experiment: Cytotoxicity against Homo sapiens (human) NCI-H226 cells after 48 hr by SRB assay; details: NCI-H226, 48 h
# HOP-62 = experiment: Cytotoxicity against Homo sapiens (human) HOP62 cells after 48 hr by SRB assay; details: HOP-62, 48 h
# HOP-92 = experiment: Cytotoxicity against Homo sapiens (human) HOP92 cells after 48 hr by SRB assay; details: HOP-92, 48 h
# EKVX = experiment: Cytotoxicity against Homo sapiens (human) EKVX cells after 48 hr by SRB assay
# RPMI-8226 = experiment: Cytotoxicity against Homo sapiens (human) RPMI8226 cells after 48 hr by SRB assay; details: RPMI-8226, 48 h
# K562 = experiment: Cytotoxicity against Homo sapiens (human) K562 cells after 48 hr by SRB assay; details: K562, 48 h
# CCRF-CEM [6] = experiment: Cytotoxicity against Homo sapiens (human) CCRF-CEM cells after 48 hr by SRB assay
# HL-60(TB) = experiment: Cytotoxicity against Homo sapiens (human) HL-60(TB) cells after 48 hr by SRB assay; details: HL-60, 48 h
# OVCAR-5 = experiment: Cytotoxicity against Homo sapiens (human) OVCAR5 cells after 48 hr by SRB assay; details: OVCAR-5, 48 h
# UACC-257 = experiment: Cytotoxicity against Homo sapiens (human) UACC257 cells after 48 hr by SRB assay; details: UACC-257, 48 h
# SK-MEL-5 = experiment: Cytotoxicity against Homo sapiens (human) SK-MEL-5 cells after 48 hr by SRB assay; details: SK-MEL-5, 48 h
# MDA-MB-435 = experiment: Cytotoxicity against Homo sapiens (human) MDA-MB-435 cells after 48 hr by SRB assay; details: MDA-MB-435, 48 h
# Malme-3M = experiment: Cytotoxicity against Homo sapiens (human) MALME-3M cells after 48 hr by SRB assay
# LOX IMVI = experiment: Cytotoxicity against Homo sapiens (human) LOXIMVI cells after 48 hr by SRB assay
# [7] = read-out: LC50 (the source's name)
structure (smiles),measurement,setting,value
Nc1cc(-c2ccc(Cl)cc2)nn1-c1nc(=O)c(/C=C/c2ccco2)n[nH]1,GI50,[1],4.3 µM
same,TGI,[1],40.1 µM
same,CC50,[1]; [7],50 µM
same,LC50,T47D,> 100 µM
same,TGI,T47D,44.2 µM
same,GI50,T47D; read-out: GI50,4.37 µM
same,GI50,T47D; read-out: pGI50 (converted),4.37 µM
same,GI50,Hs-578T,8.51 µM
same,"LC50 (lethal concentration, 50%)",MDA-MB-231,> 100 µM
same,TGI,MDA-MB-231,> 100 µM
same,GI50,MDA-MB-231; read-out: GI50,13.9 µM
same,GI50,MDA-MB-231; read-out: pGI50 (converted),13.8 µM
same,LC50 (concentration killing 50% of cells),MCF7,> 100 µM
same,TGI,MCF7,50.4 µM
same,GI50,MCF7; read-out: GI50,4.05 µM
same,GI50,MCF7; read-out: pGI50 (converted),4.07 µM
same,LC50,DU-145,55.4 µM
same,TGI,DU-145,18.3 µM
same,GI50,DU-145; read-out: GI50,3.01 µM
same,GI50,DU-145; read-out: pGI50 (converted),3.02 µM
same,LC50,TK-10,> 100 µM
same,TGI,TK-10,23.1 µM
same,GI50,TK-10; read-out: GI50,3.64 µM
same,GI50,TK-10; read-out: pGI50 (converted),3.63 µM
same,LC50,CAKI-1 [2],> 100 µM
same,TGI,CAKI-1 [2],4.6 µM
same,GI50,CAKI-1 [2]; read-out: GI50,0.37 µM
same,GI50,CAKI-1 [2]; read-out: pGI50 (converted),0.372 µM
same,LC50,A498,> 100 µM
same,TGI,A498,6.62 µM
same,GI50,A498; read-out: GI50,1.62 µM
same,GI50,A498; read-out: pGI50 (converted),1.62 µM
same,LC50,SK-OV-3,> 100 µM
same,TGI,SK-OV-3,7.43 µM
same,GI50,SK-OV-3; read-out: GI50,5.58 µM
same,GI50,SK-OV-3; read-out: pGI50 (converted),5.62 µM
same,inhibition of growth at 10 µM,SF-295,90.1%
same,inhibition of growth at 10 µM,SW-620,50.8%
same,inhibition of growth at 10 µM,CCRF-CEM [3],66.1%
same,inhibition of growth at 10 µM,CAKI-1 [4],99%
same,inhibition of growth at 10 µM,ACHN,70.6%
same,inhibition of growth at 10 µM,[5],94.3%
same,inhibition of growth at 10 µM,IGROV-1,65%
same,inhibition of growth at 10 µM,SK-MEL-28,33.6%
same,inhibition of growth at 10 µM,U-251,49.4%
same,inhibition of growth at 10 µM,SNB-75,32.6%
same,inhibition of growth at 10 µM,UO-31,96.1%
same,inhibition of growth at 10 µM,SN12C,31.8%
same,"LC50 (lethal concentration, 50% cell kill)",NCI-H226,> 100 µM
same,TGI,NCI-H226,75.6 µM
same,GI50,NCI-H226; read-out: GI50,12.2 µM
same,GI50,NCI-H226; read-out: pGI50 (converted),12.3 µM
same,LC50 (concentration killing 50% of cells),HOP-62,> 100 µM
same,TGI,HOP-62,76.8 µM
same,GI50,HOP-62; read-out: GI50,5.77 µM
same,GI50,HOP-62; read-out: pGI50 (converted),5.75 µM
same,LC50,HOP-92,> 100 µM
same,TGI,HOP-92,9.28 µM
same,GI50,HOP-92; read-out: GI50,1.61 µM
same,GI50,HOP-92; read-out: pGI50 (converted),1.62 µM
same,TGI,EKVX,31.1 µM
same,GI50,EKVX; read-out: GI50,3.57 µM
same,CC50,EKVX; [7],> 100 µM
same,GI50,EKVX; read-out: pGI50 (converted),3.55 µM
same,LC50,RPMI-8226,> 100 µM
same,TGI,RPMI-8226,23.2 µM
same,GI50,RPMI-8226; read-out: GI50,3.03 µM
same,GI50,RPMI-8226; read-out: pGI50 (converted),3.02 µM
same,LC50,K562,> 100 µM
same,TGI,K562,23 µM
same,GI50,K562; read-out: GI50,2.79 µM
same,GI50,K562; read-out: pGI50 (converted),2.75 µM
same,LC50,CCRF-CEM [6],> 100 µM
same,TGI,CCRF-CEM [6],16.8 µM
same,GI50,CCRF-CEM [6]; read-out: GI50,2.88 µM
same,GI50,CCRF-CEM [6]; read-out: pGI50 (converted),2.88 µM
same,LC50,HL-60(TB),> 100 µM
same,TGI,HL-60(TB),8.19 µM
same,GI50,HL-60(TB); read-out: GI50,2.83 µM
same,GI50,HL-60(TB); read-out: pGI50 (converted),2.82 µM
same,LC50 (50% lethal concentration),OVCAR-5,> 100 µM
same,TGI,OVCAR-5,82 µM
same,GI50,OVCAR-5; read-out: GI50,5.49 µM
same,GI50,OVCAR-5; read-out: pGI50 (converted),5.5 µM
same,LC50,UACC-257,> 100 µM
same,TGI,UACC-257,71.8 µM
same,GI50,UACC-257; read-out: GI50,6.59 µM
same,GI50,UACC-257; read-out: pGI50 (converted),6.61 µM
same,TGI,SK-MEL-5,24.8 µM
same,GI50,SK-MEL-5; read-out: GI50,3.83 µM
same,CC50,SK-MEL-5; [7],> 100 µM
same,GI50,SK-MEL-5; read-out: pGI50 (converted),3.8 µM
same,GI50,MDA-MB-435,5.22 µM
same,TGI,MDA-MB-435,> 100 µM
same,CC50,MDA-MB-435; [7],> 100 µM
same,LC50,Malme-3M,> 100 µM
same,TGI,Malme-3M,53.1 µM
same,GI50,Malme-3M; read-out: GI50,11 µM
same,GI50,Malme-3M; read-out: pGI50 (converted),11 µM
same,TGI,LOX IMVI,73.4 µM
same,GI50,LOX IMVI; read-out: GI50,6.69 µM
same,CC50,LOX IMVI; [7],> 100 µM
same,GI50,LOX IMVI; read-out: pGI50 (converted),6.76 µM
O=c1[nH]cc(F)c(=O)[nH]1 [FLUOROURACIL],GI50,T47D; read-out: pGI50 (converted),79.4 µM
same,GI50,Hs-578T,251 µM
same,GI50,MDA-MB-231; read-out: pGI50 (converted),501 µM
same,GI50,MCF7; read-out: pGI50 (converted),1.58 µM
same,GI50,DU-145; read-out: pGI50 (converted),10 µM
same,GI50,TK-10; read-out: pGI50 (converted),126 µM
same,GI50,CAKI-1 [2]; read-out: pGI50 (converted),3.98 µM
same,GI50,A498; read-out: pGI50 (converted),10 µM
same,GI50,SK-OV-3; read-out: pGI50 (converted),158 µM
same,GI50,NCI-H226; read-out: pGI50 (converted),251 µM
same,GI50,HOP-62; read-out: pGI50 (converted),20 µM
same,GI50,HOP-92; read-out: pGI50 (converted),158 µM
same,GI50,EKVX; read-out: pGI50 (converted),316 µM
same,GI50,RPMI-8226; read-out: pGI50 (converted),5.01 µM
same,GI50,K562; read-out: pGI50 (converted),20 µM
same,GI50,CCRF-CEM [6]; read-out: pGI50 (converted),31.6 µM
same,GI50,HL-60(TB); read-out: pGI50 (converted),20 µM
same,GI50,OVCAR-5; read-out: pGI50 (converted),158 µM
same,GI50,UACC-257; read-out: pGI50 (converted),100 µM
same,GI50,SK-MEL-5; read-out: pGI50 (converted),12.6 µM
same,GI50,Malme-3M; read-out: pGI50 (converted),20 µM
same,GI50,LOX IMVI; read-out: pGI50 (converted),6.31 µM
